The nature of data set [1]: (§1) Oral bioavailability in Lewis rat at 1 mg/kg. Particulars: Lewis, in vivo. Type of data set: ADME, organism-based.
Data set [2] can be described thus: Half life in Lewis rat at 1 mg/kg, iv. It is filed as ADME, organism-based. The note with it: in vivo. On the set-up: dose 1 mg/kg, route intravenous.
Data set [3] deals with Rattus norvegicus. As to the kind of experiment: (§2) Clearance in Lewis rat at 1 mg/kg, iv. The note with it: in vivo. It is filed as ADME, organism-based. On the set-up: dose 1 mg/kg, route intravenous.
Data set [4] can be described thus: AUC in Lewis rat 0.25 mg/kg, po. The note with it: Lewis, plasma.
The nature of data set [5]: as §2. It is filed as ADME, organism-based. On the set-up: dose 1 mg/kg, route intravenous. The note with it: Lewis, in vivo.
Data set [6] in a line: Clearance in Lewis rat at 0.25 mg/kg, iv. Type of data set: ADME, organism-based. The note with it: in vivo. On the set-up: dose 0.25 mg/kg, route intravenous.
Data set [7] can be described thus: Oral bioavailability in Lewis rat at 0.25 mg/kg, po. Particulars: in vivo. Type of data set: ADME, organism-based.
Data set [8] in a line: Half life in Lewis rat at 0.25 mg/kg, iv and 0.25 mg/kg, po. Type of data set: ADME, organism-based. The note with it: in vivo.
The nature of data set [9]: Oral bioavailability in cynomolgus monkey at 1.4 mg/kg. Type of data set: ADME, organism-based, Macaca fascicularis. Particulars: in vivo.
For data set [10], the system named is Rattus norvegicus. The description is as §1. Type of data set: ADME, organism-based. The note with it: in vivo.
In data set [11] the test system is Rattus norvegicus. As to the kind of experiment: AUC in Lewis rat 0.25 mg/kg, po. The note with it: in vivo.
A short description of data set [12]: Oral bioavailability in dog. It is filed as ADME, organism-based, Canis lupus familiaris. Particulars: in vivo.
A short description of data set [13]: Ratio of drug level in brain to plasma in Lewis rat at 1 mg/kg, iv and 1 mg/kg, po. The note with it: read-out: BPR. It is filed as ADME, organism-based.
A short description of data set [14]: Oral bioavailability in mouse. Type of data set: ADME, organism-based. Particulars: in vivo.
The subject of data set [15] is Rattus norvegicus. As to the kind of experiment: Volume of distribution at steady state in Lewis rat at 1 mg/kg, iv. Type of data set: ADME, organism-based. On the set-up: dose 1 mg/kg, route intravenous. Particulars: in vivo.

The values below come from ChEMBL document CHEMBL1781916, “p38alpha mitogen-activated protein kinase inhibitors: optimization of a series of biphenylamides to give a molecule suitable for clinical progression” (J Med Chem, 2009).

Take `Cc1ccc(C(=O)NC2CC2)cc1-c1ccc(C(=O)NCC2CC2)cn1`: the bioavailability (in general, dose-corrected exposure relative to a reference, in per cent) in [1] came out at 99%. The half-life (commonly how long it takes for the measured level to halve) in data set [2] was 3 h. Moreover, the clearance (as a rule, a measure of how efficiently the substance is removed, as volume per time) in data set [3] came out at 1.5 mL/min/kg.

With `Cc1c(F)cc(C(=O)NC2CC2)cc1-c1ccc(C(=O)NCC2CC2)cn1`, the bioavailability in [1] was above 95%. Moreover, in data set [4], the AUC (usually concentration integrated over time) worked out at 810 ng·h/mL. The compound further gave a half-life in [2] of 1.9 h. In addition, in data set [5], the clearance was 2.5 mL/min/kg.

As for `Cc1c(F)cc(C(=O)NC2CC2)cc1-c1ccc(C(=O)NCC(C)C)cn1`, the AUC in data set [4] is 360 ng·h/mL. For the same compound, the clearance in data set [6] amounted to 6.4 mL/min/kg. The bioavailability in data set [7] came out at 56%. This compound also had a half-life in data set [8] of 1.1 h.

As for `Cc1c(F)cc(C(=O)NC2CC2)cc1-c1ccc(C(=O)N[C@H](C)C(C)C)cn1`, the AUC in [4] was determined as 50 ng·h/mL.

As for `Cc1c(F)cc(C(=O)NC2CC2)cc1-c1ccc(C(=O)N[C@@H](C)C(C)C)cn1`, the AUC in data set [4] amounted to 8 ng·h/mL.

Consider `Cc1c(F)cc(C(=O)NC2CC2)cc1-c1ccc(C(=O)N[C@H](C)C(C)(C)C)cn1`, for which the AUC in data set [4] was 23 ng·h/mL.

In the case of `Cc1c(F)cc(C(=O)NC2CC2)cc1-c1ccc(C(=O)N[C@@H](C)C(C)(C)C)cn1`, the AUC in data set [4] worked out at 6 ng·h/mL.

For `Cc1c(F)cc(C(=O)NC2CC2)cc1-c1ccc(C(=O)NCC(C)(C)C)cn1` [LOSMAPIMOD], the bioavailability in data set [9] was 35%; in data set [12], 55%; in [7], 51%; in data set [14], 59%. The same compound displayed a F in data set [10] of 71%. The same compound displayed an AUC in data set [11] of 220 ng·h/mL. For the same compound, the half-life was 1.2 h in data set [2] and 1.1 h in data set [8]. Moreover, the Kp in [13] was 0.1. For the same compound, the Vdss – broadly, a proportionality between amount in the body and measured concentration, not a real space – in data set [15] is 0.9 L/kg.
